We go through 7 molecules from patent publication US20040058984A1, “Stabilization of radiopharmaceutical compositions using hydrophilic thioethers and hydrophilic 6-hydroxy chromans” (priority 2003, published 2004).

The nature of data set [1]: HPLC RCP of 99mTc-depreotide with hydrophilic thioether additives (Example 8). The class given is physicochemical. Conditions: for effect on 99mTc-labelled peptide radiolabelling yield or stability: 99mTc-depreotide; for 3.5 hr RCP / 6.5 hr RCP / Initial RCP: 99mTc-depreotide kit, additive 4 mg, heated prep. As for the experimental part:
Each hydrophilic thioether was dissolved in water made up at 40 mg/mL and adjusted to pH 7 with HCl or NaOH. […] To the control vials were added 100 μL water.

A short description of data set [2]: HPLC RCP of 99mTc-labelled glycoprotein IIb/IIIa receptor-binding peptide with L-methionine (Example 5). The class given is physicochemical. As for the experimental part:
Lyophilized kit vials were prepared containing the peptide (50 μg), sodium glucoheptonate dihydrate (10 mg), stannous chloride dihydrate (50 μg), and edetate disodium dihydrate (100 μg). The formulation was adjusted to pH 7.4 prior to lyophilization.
The lyophilized kits were radiolabelled with ^99mTc in the presence and absence of L-methionine. […] Both vials were then reconstituted with 1.0 mL technetium ^99mTc sodium pertechnetate (Technelite®) containing approximately 50 mCi ^99mTc and allowed to incubate for 30 minutes at room temperature.

A short description of data set [3]: HPLC RCP of 99mTc-depreotide kits with L-methionine (Example 2). Particulars: formulated kits stored under normal conditions (≦−10° C.). As for the experimental part: Lyophilized kit vials were prepared containing depreotide, L-methionine (Met), and other components as described in Table 3. All formulations were adjusted to pH 7.4 prior to lyophilization.
The lyophilized kits were radiolabelled with ^99mTc by reconstitution with 1.0 mL technetium ^99mTc sodium pertechnetate (Technelite®) containing approximately 50 mCi ^99mTc and heating in a boiling water bath for 10 minutes. Some of the formulations were also radiolabelled in a room temperature preparation (allowed to stand at rom temperature 30 minutes following reconstitution).

A short description of data set [4]: HPLC RCP of 99mTc-labelled benzodiazepinedione derivative kits with L-methionine (Example 4). It is filed as physicochemical. Conditions: formulated kits. As to the method: L-methionine was tested for its ability to stabilize a ^99mTc-labelled glycoprotein IIb/IIIa receptor-binding benzodiazepinedione derivative 1-[(carboxyglycyl-glycyl-glycyl-cysteinamide)methyl]-4-(2-carboxyethyl)-7-[(4-amidinophenyl)methyl]-3,4-dihydro-1H-1,4-benzodiazepine-2,5-dione trifluoroacetate, having the structure. [drawing 15]
All formulations were adjusted to pH 7.4 prior to lyophilization.
The lyophilized kits were radiolabelled with ^99mTc by reconstitution with 1.0 mL technetium ^99mTc sodium pertechnetate (Technelite®) containing approximately 50 mCi ^99mTc and heating in a boiling water bath for 10 minutes.

Data set [5] can be described thus: HPLC RCP of 99mTc-labelled bisamine bisthiol non-peptide chelator with L-methionine (Example 7). It is filed as physicochemical. The source says: The non-peptide chelator was radiolabelled with ^99mTc in the presence and absence of L-methionine using the placebo vial heated preparation procedure as described in Example 6.

On to `CCSCCN` [2-(Ethylthio)ethylamine], for which, in data set [1], the “effect on 99mTc-labelled peptide radiolabelling yield or stability” value is “increase the radiolabelling yield and the stability”; the “3.5 hr RCP” value was 94.2; the “6.5 hr RCP” value is listed as 93.3; the “Initial RCP” value came to 92.8.
Consider `CSCCC=O` [3-(methylthio)propionaldehyde, reference compound], for which the “effect on 99mTc-labelled peptide radiolabelling yield or stability” value in data set [1] was “no effect”.
For `CSCC(O)CO` (stereo not shown) [3-Methylthio-1,2-propanediol, 3-methylthio-1,2-propanediol], in data set [1], the “effect on 99mTc-labelled peptide radiolabelling yield or stability” value was “increase the radiolabelling yield and the stability”; the “3.5 hr RCP” value was 84.0; the “6.5 hr RCP” value is on record as 80.9; the “Initial RCP” value is on record as 89.1.
Regarding `CSCC[C@H](N)C(=O)O` [L-methionine], the “effect on radiolabelling yield and stability of the 99mTc-peptide” value in data set [2] is “increases the radiolabelling yield and the stability”. For the same molecule, in data set [1], the “3.5 hr RCP” value was determined as 90.4, the “6.5 hr RCP” value was 89.3 and the “Initial RCP” value is on record as 95.0. Besides, the “effect on radiolabelling yield and stability of 99mTc-depreotide” value in data set [3] was “increases the radiolabelling yield and the stability”. The “effect on radiolabelling yield and stability of the 99mTc-labelled benzodiazepinedione derivative” value in data set [4] is “increases the radiolabelling yield and the stability”. Further, in data set [5], the “effect on radiolabelling yield and stability of a 99mTc-labelled non-peptide chelator” value was “increases the radiolabelling yield and the stability”.
As for `C[S+]([O-])CC[C@H](N)C(=O)O` (stereo partly shown) [Methionine sulfoxide, reference compound], in data set [1], the “effect on 99mTc-labelled peptide radiolabelling yield or stability” value is “no effect”.
Take `CSCC[C@H](N)CO` [Methioninol, methioninol]: in data set [1], the “effect on 99mTc-labelled peptide radiolabelling yield or stability” value was “increase the radiolabelling yield and the stability”; the “3.5 hr RCP” value is 93.9; the “6.5 hr RCP” value was determined as 90.7; the “Initial RCP” value is 94.1.
As to `CS(=O)(=O)CC[C@H](N)C(=O)O` [methionine sulfone, reference compound], the “effect on 99mTc-labelled peptide radiolabelling yield or stability” value in data set [1] was “no effect”.
